# From US20250353842A1, “BICYCLIC AMINE CDK12 INHIBITORS” (Incyte Corporation, priority 2022, published 2025)
# Molecular target: CDK12 complexed with Cyclin K (Homo sapiens (Human), UniProt Q9NYV4)
# Assay: CDK enzymatic assay (HTRF, LANCE Ultra kinase assay)
# Format: biochemical
# Settings: 60 minutes pre-incubation, 1 mM ATP
# Experimental: The following activity of the CDK enzymes in complex with their respective cyclins we assayed: CDK1 complexed with Cyclin B1; CDK2 complexed with Cyclin E1; CDK4 complexed with Cyclin D1; CDK6 complexed with Cyclin D1; CDK6 complexed with Cyclin D3; CDK9 complexed with Cyclin T1; CDK7 complexed with Cyclin H/MAT1; CDK2 complexed with Cyclin A2; CDK5 complexed with p35; CDK12 complexed with Cyclin K; CDK13 complexed with Cyclin K. These in vitro enzyme activity are assayed using homogeneous time-resolved energy transfer (HTRF), which measures phosphorylation of a peptide substrate. The LANCE® Ultra kinase assay (PerkinElmer) uses a ULight™-labeled EIF4E-binding protein 1 (THR37/46) peptide (DYSTTPGGTLFSTTPGTRI) (SEQ ID NO: 1) substrate and a Europium-labeled anti-phospho-4E-BP1 antibody (CDK2, CDK1, CDK4, CDK6, CDK9, CDK12, CDK13) or ULight™-labeled Myelin Basic Protein peptide (VTPRTPPP) (SEQ ID NO: 2) substrate and a Europium-labeled anti-phospho-MBP antibody (CDK7). Each CDK enzyme activity assays utilized human CDK co-expressed as N-terminal GST-tagged protein with its full length cyclin partner using a baculovirus expression system.
# Enzyme was pre-incubated with compounds for 30 minutes (CDK1,2,4,6,9) or 60 minutes (CDK7, CDK12, CDK13) prior to addition of ATP and Ulight-peptide (1 mM and 50 nM final, respectively), in assay buffer containing 50 mM HEPES pH 7.5, 1 mM EGTA, 10 mM MgCl2, 2 mM DTT, 0.05 mg/mL BSA, and 0.01% Tween 20.
# The reaction was then incubated for 60-90 minutes at room temperature. The reactions were stopped by the addition of EDTA and Europium labeled antibody, for a final concentration of 15 mM and 1.0-1.5 nM, respectively. HTRF signals were read after 15-120 minutes. A ratio of fluorescence transferred to the labeled substrate (665 nm) relative to fluorescence of the Europium donor (620 nm) represents the extent of phosphorylation. Ratios for treated wells were normalized to DMSO only (100% activity) and no enzyme (0% activity) controls. Normalized data was analyzed using a three or four parameter dose response curve to determine IC50 for each compound and are shown in Table A. Control reference inhibitors were included on each plate.
# Chain of CDK12 complexed with Cyclin K (Q9NYV4 whole entry): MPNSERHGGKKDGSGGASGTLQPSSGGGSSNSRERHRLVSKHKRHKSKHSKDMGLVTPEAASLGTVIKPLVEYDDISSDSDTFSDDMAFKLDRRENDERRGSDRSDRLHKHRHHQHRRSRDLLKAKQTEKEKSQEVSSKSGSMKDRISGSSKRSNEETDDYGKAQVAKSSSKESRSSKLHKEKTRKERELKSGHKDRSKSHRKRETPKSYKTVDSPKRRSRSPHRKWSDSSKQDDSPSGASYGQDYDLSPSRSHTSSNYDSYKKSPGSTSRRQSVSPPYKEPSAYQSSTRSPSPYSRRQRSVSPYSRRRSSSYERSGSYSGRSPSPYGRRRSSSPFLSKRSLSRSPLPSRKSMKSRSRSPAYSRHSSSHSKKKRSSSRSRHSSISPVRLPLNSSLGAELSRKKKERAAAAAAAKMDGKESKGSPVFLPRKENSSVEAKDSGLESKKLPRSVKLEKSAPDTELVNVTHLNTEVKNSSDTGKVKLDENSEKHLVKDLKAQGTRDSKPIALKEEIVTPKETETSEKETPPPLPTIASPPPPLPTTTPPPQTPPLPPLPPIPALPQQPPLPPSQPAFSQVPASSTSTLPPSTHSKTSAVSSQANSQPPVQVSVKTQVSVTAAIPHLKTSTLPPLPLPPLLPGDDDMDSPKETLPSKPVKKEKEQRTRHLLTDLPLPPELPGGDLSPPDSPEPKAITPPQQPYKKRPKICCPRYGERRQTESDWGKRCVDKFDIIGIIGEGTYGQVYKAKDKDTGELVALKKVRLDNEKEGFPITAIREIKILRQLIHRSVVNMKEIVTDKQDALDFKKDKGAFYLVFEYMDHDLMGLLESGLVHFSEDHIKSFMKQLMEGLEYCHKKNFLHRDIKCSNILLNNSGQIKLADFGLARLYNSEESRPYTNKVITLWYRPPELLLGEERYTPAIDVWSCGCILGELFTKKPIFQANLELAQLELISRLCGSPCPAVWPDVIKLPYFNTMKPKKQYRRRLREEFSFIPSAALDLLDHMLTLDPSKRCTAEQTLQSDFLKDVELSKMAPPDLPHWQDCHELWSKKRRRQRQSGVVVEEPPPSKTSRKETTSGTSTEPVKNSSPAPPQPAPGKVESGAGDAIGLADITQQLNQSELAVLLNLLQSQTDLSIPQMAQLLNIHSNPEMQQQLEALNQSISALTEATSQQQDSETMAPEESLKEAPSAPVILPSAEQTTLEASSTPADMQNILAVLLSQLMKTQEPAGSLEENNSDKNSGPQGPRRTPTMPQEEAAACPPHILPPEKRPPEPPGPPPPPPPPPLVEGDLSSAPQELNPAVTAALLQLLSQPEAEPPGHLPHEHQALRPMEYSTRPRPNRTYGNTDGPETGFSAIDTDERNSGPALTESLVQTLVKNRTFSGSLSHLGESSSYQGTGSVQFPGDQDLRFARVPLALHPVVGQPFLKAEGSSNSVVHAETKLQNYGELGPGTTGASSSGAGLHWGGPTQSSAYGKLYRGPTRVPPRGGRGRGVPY
# Chain of CDK12 complexed with Cyclin K (O75909 whole entry partner): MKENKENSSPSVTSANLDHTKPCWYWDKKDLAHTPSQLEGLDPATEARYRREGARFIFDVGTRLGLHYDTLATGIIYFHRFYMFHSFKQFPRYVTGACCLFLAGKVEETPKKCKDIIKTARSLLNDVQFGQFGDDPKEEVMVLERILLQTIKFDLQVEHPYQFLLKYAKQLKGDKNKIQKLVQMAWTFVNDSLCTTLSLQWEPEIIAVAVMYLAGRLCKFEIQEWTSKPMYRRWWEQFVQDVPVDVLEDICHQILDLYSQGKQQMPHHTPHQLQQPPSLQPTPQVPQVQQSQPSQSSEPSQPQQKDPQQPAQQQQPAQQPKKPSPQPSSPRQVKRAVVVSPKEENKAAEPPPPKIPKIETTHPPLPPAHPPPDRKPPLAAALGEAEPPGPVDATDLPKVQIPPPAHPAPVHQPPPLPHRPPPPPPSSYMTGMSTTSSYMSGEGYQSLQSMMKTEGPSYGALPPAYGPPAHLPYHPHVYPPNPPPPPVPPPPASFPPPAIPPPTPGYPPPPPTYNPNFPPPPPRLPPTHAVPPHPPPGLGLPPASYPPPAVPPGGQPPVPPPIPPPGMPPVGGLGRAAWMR
row,SMILES,IC50
1,"N#Cc1cnc(N[C@@H]2CCC[C@H](n3cnc4cccc(Br)c43)C2)nc1-c1cnn(CC(F)F)c1 [Example 41, 2-(((1R,3S)-3-(7-Bromo-1H-benzo[d]imidazol-1-yl)cyclohexyl)amino)-4-(1-(2,2-difluoroethyl)-1H-pyrazol-4-yl)pyrimidine-5-carbonitrile]",< 0.05 µM
2,"Cn1ncc(-c2nc(N[C@@H]3CCC[C@H](n4cnc5cccnc54)C3)ncc2C#N)c1C#N [Example 20, 2-(((1R,3S)-3-(3H-Imidazo[4,5-b]pyridin-3-yl)cyclohexyl)amino)-4-(5-cyano-1-methyl-1H-pyrazol-4-yl)pyrimidine-5-carbonitrile]",0.05 to 0.5 µM
3,"N#Cc1cc(C(F)(F)F)cc2ncn([C@H]3CCC[C@@H](Nc4ncc(C(F)(F)F)c(-c5cnn(CC(F)F)c5)n4)C3)c12 [Example 51, 1-((1S,3R)-3-((4-(1-(2,2-Difluoroethyl)-1H-pyrazol-4-yl)-5-(trifluoromethyl)pyrimidin-2-yl)amino)cyclohexyl)-5-(trifluoromethyl)-1H-benzo[d]imidazole-7-carbonitrile]",0.05 to 0.5 µM
4,"CC(C)n1cc(-c2nc(N[C@@H]3CCC[C@H](n4cnc5cc(C#N)cnc54)C3)ncc2C#N)cn1 [Example 72, 3-((1S,3R)-3-((5-Cyano-4-(1-isopropyl-1H-pyrazol-4-yl)pyrimidin-2-yl)amino)cyclohexyl)-3H-imidazo[4,5-b]pyridine-6-carbonitrile]",< 0.05 µM
5,"Cn1ncc(-c2nc(N[C@@H]3CCC[C@H](n4cnc5cccnc54)C3)ncc2C#N)c1CO [Example 26, 2-(((1R,3S)-3-(3H-Imidazo[4,5-b]pyridin-3-yl)cyclohexyl)amino)-4-(5-(hydroxymethyl)-1-methyl-1H-pyrazol-4-yl)pyrimidine-5-carbonitrile]",0.05 to 0.5 µM
6,"CC(C)n1cc(-c2nc(N[C@@H]3CCC[C@H](n4cnc5cncc(C#N)c54)C3)ncc2C#N)cn1 [Example 33, 1-((1S,3R)-3-((5-Cyano-4-(1-isopropyl-1H-pyrazol-4-yl)pyrimidin-2-yl)amino)cyclohexyl)-1H-imidazo[4,5-c]pyridine-7-carbonitrile]",< 0.05 µM
7,"CC(C)(O)Cn1cc(-c2nc(N[C@@H]3CCC[C@H](n4cnc5cc(C#N)cnc54)C3)ncc2C#N)cn1 [Example 58, 3-((1S,3R)-3-((5-Cyano-4-(1-(2-hydroxy-2-methylpropyl)-1H-pyrazol-4-yl)pyrimidin-2-yl)amino)cyclohexyl)-3H-imidazo[4,5-b]pyridine-6-carbonitrile]",< 0.05 µM
8,"Cn1ncc(-c2nc(N[C@@H]3CCC[C@H](n4cnc5cccnc54)C3)ncc2C#N)c1C(F)(F)F [Example 23, 2-(((1R,3S)-3-(3H-Imidazo[4,5-b]pyridin-3-yl)cyclohexyl)amino)-4-(1-methyl-5-(trifluoromethyl)-1H-pyrazol-4-yl)pyrimidine-5-carbonitrile]",0.05 to 0.5 µM
9,"CC(C)n1cnc(-c2nc(N[C@@H]3CCC[C@H](n4cnc5cccnc54)C3)ncc2C#N)c1 [Example 27, 2-(((1R,3S)-3-(3H-Imidazo[4,5-b]pyridin-3-yl)cyclohexyl)amino)-4-(1-isopropyl-1H-imidazol-4-yl)pyrimidine-5-carbonitrile]",< 0.05 µM
10,"N#Cc1cnc2c(c1)ncn2[C@H]1CCC[C@@H](Nc2ncc(C#N)c(-c3cnn(C4COC4)c3)n2)C1 [Example 66, 3-((1S,3R)-3-((5-Cyano-4-(1-(oxetan-3-yl)-1H-pyrazol-4-yl)pyrimidin-2-yl)amino)cyclohexyl)-3H-imidazo[4,5-b]pyridine-6-carbonitrile]",< 0.05 µM
11,"Cc1c(-c2nc(N[C@@H]3CCC[C@H](n4cnc5cc(C#N)cnc54)C3)ncc2C#N)nnn1C [28/28A, 3-((1S,3R)-3-((5-Cyano-4-(1,5-dimethyl-1H-1,2,3-triazol-4-yl)pyrimidin-2-yl)amino)cyclohexyl)-3H-imidazo[4,5-b]pyridine-6-carbonitrile]",< 0.05 µM
12,"N#Cc1cncc2ncn([C@H]3CCC[C@@H](Nc4ncc(C(F)(F)F)c(-c5cnn(CC(F)F)c5)n4)C3)c12 [Example 52, 1-((1S,3R)-3-((4-(1-(2,2-Difluoroethyl)-1H-pyrazol-4-yl)-5-(trifluoromethyl)pyrimidin-2-yl)amino)cyclohexyl)-1H-imidazo[4,5-c]pyridine-7-carbonitrile]",< 0.05 µM
13,"N#Cc1cnc2c(c1)ncn2[C@H]1CC[C@@H](Nc2ncc(C(F)(F)F)c(-c3cnn(CC(F)F)c3)n2)C1 [Example 2, 3-((1S,3R)-3-((4-(1-(2,2-Difluoroethyl)-1H-pyrazol-4-yl)-5-(trifluoromethyl)pyrimidin-2-yl)amino)cyclopentyl)-3H-imidazo[4,5-b]pyridine-6-carbonitrile]",> 0.5 µM
14,"COc1ccc2ncn([C@H]3CCC[C@@H](Nc4ncc(C(F)(F)F)c(-c5cnn(CC(F)F)c5)n4)C3)c2n1 [Example 6, 4-(1-(2,2-Difluoroethyl)-1H-pyrazol-4-yl)-N-((1R,3S)-3-(5-methoxy-3H-imidazo[4,5-b]pyridin-3-yl)cyclohexyl)-5-(trifluoromethyl)pyrimidin-2-amine]",< 0.05 µM
15,"N#Cc1ccc2ncn([C@H]3CCC[C@@H](Nc4ncc(C#N)c(-c5cnn(CC(F)F)c5)n4)C3)c2c1 [Example 43, 1-((1S,3R)-3-((5-Cyano-4-(1-(2,2-difluoroethyl)-1H-pyrazol-4-yl)pyrimidin-2-yl)amino)cyclohexyl)-1H-benzo[d]imidazole-6-carbonitrile]",< 0.05 µM

# More lines, now with the values ahead:
row,IC50,SMILES
1,< 0.05 µM,"N#Cc1cnc2c(c1)ncn2[C@H]1CCC[C@@H](Nc2ncc(C#N)c(-c3cnn(CCF)c3)n2)C1 [Example 70, 3-((1S,3R)-3-((5-Cyano-4-(1-(2-fluoroethyl)-1H-pyrazol-4-yl)pyrimidin-2-yl)amino)cyclohexyl)-3H-imidazo[4,5-b]pyridine-6-carbonitrile]"
2,> 0.5 µM,"N#Cc1cnc2c(c1)ncn2[C@@H]1CCC[C@H](Nc2ncc(C#N)c(-c3cnn(CC(F)F)c3)n2)C1 [Example 35, 3-((1R,3S)-3-((5-Cyano-4-(1-(2,2-difluoroethyl)-1H-pyrazol-4-yl)pyrimidin-2-yl)amino)cyclohexyl)-3H-imidazo[4,5-b]pyridine-6-carbonitrile]"
3,< 0.05 µM,"Cc1nccc2c1ncn2[C@H]1CCC[C@@H](Nc2ncc(C#N)c(-c3cnn(CC(F)F)c3)n2)C1 [Example 85, 4-(1-(2,2-Difluoroethyl)-1H-pyrazol-4-yl)-2-(((1R,3S)-3-(4-methyl-1H-imidazo[4,5-c]pyridin-1-yl)cyclohexyl)amino)pyrimidine-5-carbonitrile]"
4,< 0.05 µM,"N#Cc1cc2c(cn1)ncn2[C@H]1CCC[C@@H](Nc2ncc(C#N)c(-c3cnn(CC(F)F)c3)n2)C1 [Example 46, 1-((1S,3R)-3-((5-Cyano-4-(1-(2,2-difluoroethyl)-1H-pyrazol-4-yl)pyrimidin-2-yl)amino)cyclohexyl)-1H-imidazo[4,5-c]pyridine-6-carbonitrile]"
5,< 0.05 µM,"CC(O)Cn1cc(-c2nc(N[C@@H]3CCC[C@H](n4cnc5cc(C#N)cnc54)C3)ncc2C#N)cn1 (stereo partly drawn) [Example 67, 3-((1S,3R)-3-((5-Cyano-4-(1-(2-hydroxypropyl)-1H-pyrazol-4-yl)pyrimidin-2-yl)amino)cyclohexyl)-3H-imidazo[4,5-b]pyridine-6-carbonitrile]"
6,< 0.05 µM,"Cc1cc(F)cc2ncn([C@H]3CCC[C@@H](Nc4ncc(C#N)c(-c5cnn(CC(F)F)c5)n4)C3)c12 [Example 54, 4-(1-(2,2-Difluoroethyl)-1H-pyrazol-4-yl)-2-(((1R,3S)-3-(5-fluoro-7-methyl-1H-benzo[d]imidazol-1-yl)cyclohexyl)amino)pyrimidine-5-carbonitrile]"
7,< 0.05 µM,"N#Cc1cnc(N[C@@H]2CCC[C@H](n3cnc4cc(N5CCOCC5)cnc43)C2)nc1-c1cnn(CC(F)F)c1 [Example 76, 4-(1-(2,2-Difluoroethyl)-1H-pyrazol-4-yl)-2-(((1R,3S)-3-(6-morpholino-3H-imidazo[4,5-b]pyridin-3-yl)cyclohexyl)amino)pyrimidine-5-carbonitrile]"
8,< 0.05 µM,"Cc1cc(C#N)cc2ncn([C@H]3CCC[C@@H](Nc4ncc(C#N)c(-c5cnn(CC(F)F)c5)n4)C3)c12 [Example 55, 1-((1S,3R)-3-((5-Cyano-4-(1-(2,2-difluoroethyl)-1H-pyrazol-4-yl)pyrimidin-2-yl)amino)cyclohexyl)-7-methyl-1H-benzo[d]imidazole-5-carbonitrile]"
9,< 0.05 µM,"CN1CCN(c2cnc3c(c2)ncn3[C@H]2CCC[C@@H](Nc3ncc(C#N)c(-c4cnn(CC(F)F)c4)n3)C2)CC1 [Example 75, 4-(1-(2,2-Difluoroethyl)-1H-pyrazol-4-yl)-2-(((1R,3S)-3-(6-(4-methylpiperazin-1-yl)-3H-imidazo[4,5-b]pyridin-3-yl)cyclohexyl)amino)pyrimidine-5-carbonitrile]"
